In PMC7026418, “The kinase polypharmacology landscape of clinical PARP inhibitors” (Scientific Reports, 2020):
Where two headings read alike, the source gives them in different places.

Experiments:
Test in all cases: biochemical
Design in all cases: DiscoveRx KINOMEscan active site-directed competition binding; percent of control kinase bound to immobilised ligand
[1] = target: T1, ABL1(Q252H)-phosphorylated (Homo sapiens, UniProt P00519, Q252H)
T1 construct: phosphorylated

DLK = target: T2, DLK (Homo sapiens, UniProt Q12852)
T2 construct: gene MAP3K12
T2 sequence (Q12852 1-859): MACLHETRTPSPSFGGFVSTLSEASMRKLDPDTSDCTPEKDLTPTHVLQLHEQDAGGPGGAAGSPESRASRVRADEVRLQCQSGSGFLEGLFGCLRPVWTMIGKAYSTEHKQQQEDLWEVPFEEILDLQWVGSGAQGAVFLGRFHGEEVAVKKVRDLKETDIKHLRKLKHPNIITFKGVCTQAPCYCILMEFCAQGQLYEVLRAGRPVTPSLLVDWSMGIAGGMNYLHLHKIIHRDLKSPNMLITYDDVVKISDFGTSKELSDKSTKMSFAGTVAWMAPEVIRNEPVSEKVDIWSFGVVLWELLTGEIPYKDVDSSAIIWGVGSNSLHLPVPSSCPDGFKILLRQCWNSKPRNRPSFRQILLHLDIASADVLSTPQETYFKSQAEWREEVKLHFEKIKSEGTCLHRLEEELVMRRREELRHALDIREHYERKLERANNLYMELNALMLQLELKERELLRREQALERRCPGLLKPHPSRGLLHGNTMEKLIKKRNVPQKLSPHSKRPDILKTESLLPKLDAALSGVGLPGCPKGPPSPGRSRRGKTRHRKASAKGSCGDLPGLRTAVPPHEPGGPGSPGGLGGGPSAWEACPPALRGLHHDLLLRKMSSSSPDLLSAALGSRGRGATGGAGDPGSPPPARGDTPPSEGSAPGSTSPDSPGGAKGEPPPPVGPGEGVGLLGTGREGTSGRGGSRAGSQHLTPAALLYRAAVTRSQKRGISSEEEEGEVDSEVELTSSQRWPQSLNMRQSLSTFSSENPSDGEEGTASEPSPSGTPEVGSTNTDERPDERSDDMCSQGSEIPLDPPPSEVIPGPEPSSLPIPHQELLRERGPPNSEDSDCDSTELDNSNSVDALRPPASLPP

RIOK1 = target: T3, RIOK1 (Homo sapiens, UniProt Q9BRS2)
T3 sequence (Q9BRS2 1-568): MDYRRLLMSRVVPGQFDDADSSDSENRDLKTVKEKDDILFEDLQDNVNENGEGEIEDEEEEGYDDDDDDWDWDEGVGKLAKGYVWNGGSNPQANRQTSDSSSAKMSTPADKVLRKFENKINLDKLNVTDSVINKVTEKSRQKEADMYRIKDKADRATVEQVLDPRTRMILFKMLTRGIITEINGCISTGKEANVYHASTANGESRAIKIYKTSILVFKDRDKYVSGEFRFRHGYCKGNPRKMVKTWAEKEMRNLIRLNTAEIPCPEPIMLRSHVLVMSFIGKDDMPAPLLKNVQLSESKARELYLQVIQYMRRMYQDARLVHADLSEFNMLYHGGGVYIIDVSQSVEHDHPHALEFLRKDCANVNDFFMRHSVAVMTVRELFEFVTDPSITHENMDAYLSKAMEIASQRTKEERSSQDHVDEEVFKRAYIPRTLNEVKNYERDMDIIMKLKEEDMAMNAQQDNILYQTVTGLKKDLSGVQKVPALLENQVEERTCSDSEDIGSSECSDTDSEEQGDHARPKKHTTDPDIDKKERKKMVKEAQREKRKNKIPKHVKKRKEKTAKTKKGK

PLK4 = target: T4, PLK4 (Homo sapiens, UniProt O00444)
T4 sequence (O00444 1-970): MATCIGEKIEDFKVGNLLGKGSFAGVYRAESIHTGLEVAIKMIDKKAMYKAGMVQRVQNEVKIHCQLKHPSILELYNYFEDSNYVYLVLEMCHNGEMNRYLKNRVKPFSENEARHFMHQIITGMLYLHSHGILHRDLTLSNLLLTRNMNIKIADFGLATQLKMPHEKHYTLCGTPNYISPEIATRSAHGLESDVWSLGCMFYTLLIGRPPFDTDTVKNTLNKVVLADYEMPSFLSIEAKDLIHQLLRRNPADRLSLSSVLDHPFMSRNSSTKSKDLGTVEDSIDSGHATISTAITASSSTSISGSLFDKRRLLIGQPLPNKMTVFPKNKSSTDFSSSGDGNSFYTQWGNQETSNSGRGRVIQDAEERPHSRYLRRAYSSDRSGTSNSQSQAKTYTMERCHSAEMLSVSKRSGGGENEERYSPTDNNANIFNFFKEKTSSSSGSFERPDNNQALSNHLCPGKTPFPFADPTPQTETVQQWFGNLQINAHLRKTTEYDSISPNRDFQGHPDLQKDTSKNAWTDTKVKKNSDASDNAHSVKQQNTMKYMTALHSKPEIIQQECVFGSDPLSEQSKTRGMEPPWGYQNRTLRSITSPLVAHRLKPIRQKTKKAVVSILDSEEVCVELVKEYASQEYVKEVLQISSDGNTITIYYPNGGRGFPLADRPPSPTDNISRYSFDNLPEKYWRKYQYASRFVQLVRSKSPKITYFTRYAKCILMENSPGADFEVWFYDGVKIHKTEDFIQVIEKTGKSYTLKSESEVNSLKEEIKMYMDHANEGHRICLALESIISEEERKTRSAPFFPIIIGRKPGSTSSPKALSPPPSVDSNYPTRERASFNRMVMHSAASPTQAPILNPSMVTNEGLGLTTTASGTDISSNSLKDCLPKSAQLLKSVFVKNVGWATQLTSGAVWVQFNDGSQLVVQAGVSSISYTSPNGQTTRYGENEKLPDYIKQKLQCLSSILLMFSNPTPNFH

[2] = target: T5, TYK2(JH1domain-catalytic) (Homo sapiens, UniProt P29597)
T5 construct: JH1domain-catalytic
T5 sequence (P29597 whole entry): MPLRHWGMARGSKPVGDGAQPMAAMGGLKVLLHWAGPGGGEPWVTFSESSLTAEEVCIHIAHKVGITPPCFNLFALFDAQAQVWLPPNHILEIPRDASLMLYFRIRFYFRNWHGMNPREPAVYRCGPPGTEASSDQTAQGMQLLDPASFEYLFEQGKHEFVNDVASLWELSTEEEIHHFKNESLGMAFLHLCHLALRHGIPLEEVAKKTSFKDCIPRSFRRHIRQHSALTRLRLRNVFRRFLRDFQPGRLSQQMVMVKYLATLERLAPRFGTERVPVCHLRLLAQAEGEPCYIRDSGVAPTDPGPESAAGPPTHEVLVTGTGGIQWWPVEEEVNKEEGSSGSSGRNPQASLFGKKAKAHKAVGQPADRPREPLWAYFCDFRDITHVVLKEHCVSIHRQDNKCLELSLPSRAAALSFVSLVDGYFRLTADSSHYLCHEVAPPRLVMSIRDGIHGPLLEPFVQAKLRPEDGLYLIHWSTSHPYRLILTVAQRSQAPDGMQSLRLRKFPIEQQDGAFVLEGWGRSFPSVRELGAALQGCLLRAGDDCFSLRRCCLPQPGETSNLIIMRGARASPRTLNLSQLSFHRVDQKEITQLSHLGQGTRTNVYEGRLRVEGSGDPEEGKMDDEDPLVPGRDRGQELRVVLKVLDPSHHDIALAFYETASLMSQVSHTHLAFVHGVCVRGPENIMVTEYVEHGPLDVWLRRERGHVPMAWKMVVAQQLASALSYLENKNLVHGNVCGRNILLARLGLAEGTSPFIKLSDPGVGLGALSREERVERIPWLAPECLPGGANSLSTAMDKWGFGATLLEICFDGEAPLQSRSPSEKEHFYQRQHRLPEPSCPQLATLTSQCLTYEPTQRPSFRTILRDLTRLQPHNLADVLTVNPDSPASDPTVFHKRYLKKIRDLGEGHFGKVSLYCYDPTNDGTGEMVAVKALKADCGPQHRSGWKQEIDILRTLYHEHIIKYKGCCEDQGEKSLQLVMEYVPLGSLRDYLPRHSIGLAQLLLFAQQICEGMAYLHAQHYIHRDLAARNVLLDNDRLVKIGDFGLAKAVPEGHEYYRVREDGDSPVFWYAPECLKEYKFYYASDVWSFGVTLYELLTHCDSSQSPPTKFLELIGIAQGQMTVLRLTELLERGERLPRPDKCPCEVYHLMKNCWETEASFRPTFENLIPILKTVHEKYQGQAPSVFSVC

[3] = read-out: Talazoparib (BMN 673) / %Ctrl @ 10000nM
[4] = read-out: Olaparib / %Ctrl @ 10000nM
[5] = read-out: Rucaparib / %Ctrl @ 10000nM, binding competition, % of control
[6] = read-out: Niraparib (MK-4827) / %Ctrl @ 10000nM

Cn1ncnc1[C@H]1c2n[nH]c(=O)c3cc(F)cc(c23)N[C@@H]1c1ccc(F)cc1 [Talazoparib]
percent of control binding at 10 µM [1, 3]: 100% | percent of control binding at 10 µM (DLK; [3]): 100% | percent of control binding at 10 µM (RIOK1; [3]): 100% | percent of control binding at 10 µM (PLK4; [3]): 72% | percent of control binding at 10 µM [2, 3]: 94%

O=C(c1cc(Cc2n[nH]c(=O)c3ccccc23)ccc1F)N1CCN(C(=O)C2CC2)CC1 [Olaparib]
percent of control binding at 10 µM [1, 4]: 71% | percent of control binding at 10 µM (DLK; [4]): 96% | percent of control binding at 10 µM (RIOK1; [4]): 100% | percent of control binding at 10 µM (PLK4; [4]): 91% | percent of control binding at 10 µM [2, 4]: 84%

CNCc1ccc(-c2[nH]c3cc(F)cc4c3c2CCNC4=O)cc1 [Rucaparib]
percent of control binding at 10 µM [1, 5]: 72% | percent of control binding at 10 µM (DLK; [5]): 91% | percent of control binding at 10 µM (RIOK1; [5]): 100% | percent of control binding at 10 µM (PLK4; [5]): 99% | percent of control binding at 10 µM [2, 5]: 66%

NC(=O)c1cccc2cn(-c3ccc([C@@H]4CCCNC4)cc3)nc12 [Niraparib]
percent of control binding at 10 µM [1, 6]: 51% | percent of control binding at 10 µM (DLK; [6]): 100% | percent of control binding at 10 µM (RIOK1; [6]): 95% | percent of control binding at 10 µM (PLK4; [6]): 56% | percent of control binding at 10 µM [2, 6]: 96%
